Assay [1] deals with Trypanosoma brucei. The assay is described as follows: Compound was evaluated for growth brucei LAB 110 strain. Format: functional, organism-based.
The test system of assay [2] is Trypanosoma brucei. The assay is described as follows: Compound was evaluated for growth brucei K269 strain. In kind it is functional, organism-based.
The test system of assay [3] is Trypanosoma brucei. The assay is described as follows: Compound was evaluated for growth brucei K243 As-10-3 strain. In kind it is functional, organism-based.
The next assay has as its system NCH82. Put plainly: Compound was evaluated for inhibitory activity against H82 small cell lung carcinoma. Format: functional, cell-based. As to conditions: Homo sapiens.
Another assay concerns NCI-H157. The assay is described as follows: Compound was evaluated for inhibitory activity against H157 non-small cell lung carcinoma. Conditions: Homo sapiens. In kind it is functional, cell-based.
The test system of assay [4] is Trypanosoma brucei. Put plainly: Compound was evaluated for growth brucei K243 strain. Format: functional, organism-based.

pIC50: −log10 of the molar value.

As to `C#CCNCCCNCCCNCCCNCC`, the pIC50 is < 4.00 in the assay with Trypanosoma brucei [1]; < 4.00 with Trypanosoma brucei [2]; < 4.00 in the assay with Trypanosoma brucei [3]; 5.28 with NCH82; 6.15 in the assay on NCI-H157; < 4.00 with Trypanosoma brucei [4].

`CCNCCCNCCCNCCCNCC1CCCCCC1`: the pIC50 in the assay on Trypanosoma brucei [1] was < 4.00; with Trypanosoma brucei [2] it was < 4.00; in the assay on Trypanosoma brucei [3], < 4.00; with NCH82, 5.77; in the assay on NCI-H157, 6.30; in the assay with Trypanosoma brucei [4], < 4.00.

As to `C(CCCNCCCNCC1CCCCCC1)CCCNCCCNCC1CCCCCC1`, the pIC50 is 6.90 in the assay on Trypanosoma brucei [1]; 6.16 in the assay with Trypanosoma brucei [2]; 6.11 in the assay on Trypanosoma brucei [3]; 5.82 in the assay with NCH82; 5.68 in the assay on NCI-H157; 6.01 in the assay with Trypanosoma brucei [4].

With `CCNCCCNCCCCCCCNCCCNCC1CCCCCC1`, the pIC50 in the assay with Trypanosoma brucei [1] is 4.74; in the assay on Trypanosoma brucei [2] it was 4.68; in the assay with Trypanosoma brucei [3], 4.58; in the assay with NCH82, 5.05; in the assay on NCI-H157, < 5.00; in the assay on Trypanosoma brucei [4], 4.74.

Regarding `c1ccc(CNCCCNCCCCCCCNCCCNCc2ccccc2)cc1`, the pIC50 is 4.84 in the assay on Trypanosoma brucei [1], 4.91 in the assay on Trypanosoma brucei [2], 4.89 in the assay with Trypanosoma brucei [3] and 4.82 in the assay with Trypanosoma brucei [4].

For `CCNCCCNCCCNCCCNCC1CC1`, the pIC50 was < 4.00 in the assay on Trypanosoma brucei [1]; < 4.00 in the assay on Trypanosoma brucei [2]; < 4.00 in the assay with Trypanosoma brucei [3]; 6.15 in the assay with NCH82; 6.40 in the assay on NCI-H157; < 4.00 with Trypanosoma brucei [4].

`CCNCCCNCCCCNCCCNCC` [BIS(ETHYL)SPERMINE]: the pIC50 in the assay on NCI-H157 is 5.54.

One may read the pIC50 as the IC50 on a negative log10 scale, so that one unit is a factor of ten. Low values mean a high IC50, high ones a low IC50.

The record behind these values is ChEMBL document CHEMBL1128933, “Structural comparison of alkylpolyamine analogues with potent in vitro antitumor or antiparasitic activity” (Bioorg Med Chem Lett, 1996).
